The source of these data is article PMC10275055, “Preventing recurrence in Sonic Hedgehog Subgroup Medulloblastoma using the OLIG2 inhibitor CT-179” (Research Square, 2023).

Read-outs that look alike come from different tables or passages of the source.

The target in data set [1] is T1, Discoidin Domain Receptor Tyrosine Kinase 2 (DDR2) (Homo sapiens, UniProt Q16832).
T1 sequence (Q16832 22-855): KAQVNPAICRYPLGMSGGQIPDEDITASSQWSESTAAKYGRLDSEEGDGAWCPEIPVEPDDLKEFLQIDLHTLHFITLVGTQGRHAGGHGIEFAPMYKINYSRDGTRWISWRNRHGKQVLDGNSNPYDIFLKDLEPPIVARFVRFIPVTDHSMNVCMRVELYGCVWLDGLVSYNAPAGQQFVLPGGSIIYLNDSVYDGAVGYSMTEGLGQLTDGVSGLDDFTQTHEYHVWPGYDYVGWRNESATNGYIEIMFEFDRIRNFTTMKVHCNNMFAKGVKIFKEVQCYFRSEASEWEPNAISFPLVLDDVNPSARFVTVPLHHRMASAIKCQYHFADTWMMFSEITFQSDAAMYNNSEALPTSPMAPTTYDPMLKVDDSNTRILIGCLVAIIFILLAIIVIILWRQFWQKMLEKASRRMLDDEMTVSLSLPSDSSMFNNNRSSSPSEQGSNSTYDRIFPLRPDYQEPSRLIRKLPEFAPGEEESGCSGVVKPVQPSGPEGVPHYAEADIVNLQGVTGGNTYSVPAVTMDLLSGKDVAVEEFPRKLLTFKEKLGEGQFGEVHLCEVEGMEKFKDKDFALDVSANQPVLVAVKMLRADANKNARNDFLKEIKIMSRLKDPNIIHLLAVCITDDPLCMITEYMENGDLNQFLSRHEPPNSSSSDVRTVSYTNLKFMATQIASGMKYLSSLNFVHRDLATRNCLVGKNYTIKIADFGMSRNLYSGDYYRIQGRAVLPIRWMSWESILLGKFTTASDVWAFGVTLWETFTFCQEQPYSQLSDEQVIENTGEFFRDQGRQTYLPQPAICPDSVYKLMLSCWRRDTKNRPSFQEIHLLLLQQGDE
The experiment in a line: Kinase profiling (KINOMEscan / SelectScreen), DDR2. In kind it is biochemical. The settings on record: ATP equal to Km. On the procedure: (§1) Effect of CT-179 on protein kinase activity was evaluated using the Thermofisher Scientific SelectScreen Kinase Profiling Service. Over 400 human protein kinases were tested in the presence of 1 μM final concentration of CT-179 at an ATP concentration equal to the known ATP Km for each kinase. The experiment was done by Curtana Pharmaceuticals. Data is presented as percentage of inhibition of enzyme activity. Software CORAL was used to make the kinome tree, which is available from: http://phanstiel-lab.med.unc.edu/CORAL/.

Data set [2] deals with KIT (Homo sapiens, UniProt P10721). Put plainly: Kinase profiling (KINOMEscan / SelectScreen), KIT. In kind it is biochemical. The settings on record: ATP equal to Km. On the procedure:
as §1

A short description of data set [3]: In vivo pharmacokinetic studies of CT-179 in mice, plasma and brain. Also noted: species or system mice (C57Bl/J6). The settings on record: mouse; for bioavailability: in vivo, po, PO 20 mg/kg vs IV 1 mg/kg. On the procedure:
The in vivo pharmacokinetic studies (EXT-240 and EXT-241) were performed under contract by Biodura Inc.

Data set [4] concerns Med-813 MB cell line. Put plainly: Cell viability, 7 days treatment, Med-813. In kind it is cell-based. The settings on record: Homo sapiens, 168 h; Med-813, 7 days. On the procedure:
(§2) Cell proliferation was determined by a CellTiter 96® Non-Radioactive Cell Proliferation Assay (Promega) kit. Absorbance at 490 nm was measured on a Biotek PowerWave (Biotek, USA) plate scanner to obtain raw data. Average absorbance from triplicate wells were plotted against concentration using GraphPad Prism software v.7.0 (GraphPad software). At the indicated time points, cells were stained using FITC-conjugated Annexin V and Annexin V binding buffer (BD Pharmingen™) according to the manufacturer’s instructions. Annexin V or propidium iodide (PI)-positive cells were analyzed using a Fortessa 5 Flow Cytometer (Becton Dickinson) and data was analyzed using FlowJo® software (Tree Star).

The test system of data set [5] is HEK293 cells. The experiment in a line: Cell viability, OLIG2-negative HEK293. It is filed as cell-based, human. The settings on record: HEK293, does not express OLIG2. The procedure:
as §2

The nature of data set [6]: G-Smo GEM model of SHH-MB: tolerability, pharmacodynamics, survival. The settings on record: mouse, in vivo, ip, read-out: maximum tolerated dose (MTD). It is filed as in vivo, mice. On the procedure: (§3) Medulloblastoma-bearing mice were maintained at UNC in accordance with UNC IACUC protocols 19–098 and 21–011 and at QIMR under protocol 1572 and 2324. Specimens were examined by a neuropathologist to verify tumor type and grade.
(§4) Post-natal P10 G-Smo mice were injected IP with CT-179 (80 mg/kg), or POx-Palbo (25 mg/kg, every day from P10 to P13), or combination (CT-179 + POx-Palbo, EOD from P14) or saline control solution and tumors were harvested after 6 or 24 hours. EdU (40 mg/kg) was administered IP 30 minutes before harvest. Tumors were dissociated using the Worthington Papain Dissociation System Kit, then fixed for 15 minutes on ice and washed with FACS Wash buffer (2% FBS in PBS). Fixed cells were stained with fluorophore markers for DNA (FX Cycle stain, Thermo Fisher Scientific), EdU (Click-it Edu Kit, Thermo Fisher Scientific), and phospho-RB content (phospho-RB^Ser807/811, Cell Signalling Technology) as previously described. Stained cells were resuspended in sheath fluid and ran on LSR II flow cytometer for 50000 events at the UNC Flow Cytometry core, using appropriate compensation controls and analyzed using FlowJo® software (Tree Star).
(§5) Brains including tumors from G-Smo mice were harvested, fixed in 4% paraformaldehyde for 48 hours, and embedded in paraffin at the UNC Centre for Gastrointestinal Biology and Disease Histology core. Sections were deparaffinised, and antigen retrieval was performed using a low-pH citric acid-based buffer. Staining was performed and stained slides were digitally scanned using the Leica Biosystems Aperio ImageScope software (12.3.3) by the UNC Translational Pathology Laboratory, as in prior studies. The primary antibodies used were anti-NeuN (Cell Signalling Technology) anti-OLIG2 (Cell Marque) and anti-SOX10 (Cell Signalling Technology) and anti-cleaved caspase-3 (Biocare).
(§6) In vitro experiments - all data represent the means ± standard deviation (SD) or standard error of the mean (SEM) as indicated. Where appropriate, two-tailed Student’s t-test or ANOVA were used to determine the probability of difference (*p < 0.05, ** p < 0.01, ***p < 0.001). In vivo experiments - the log-rank (Mantel-Cox) test was used to determine the survival significance of survival differences between treatment groups (*p < 0.05, ** p < 0.01, ***p < 0.001). Kaplan-Meier survival curves were generated using GraphPad Prism v. 7.0 software (GraphPad software).

In data set [7] the test system is SHH-MB in Gfap-Cre/SmoM2 (G-Smo) mice. The data set is described as above. In kind it is in vivo. The procedure:
as §3, §4, §5, §6

The mark [8] stands for this setting: 80 mg/kg at P10, P12, P14 and P16, 24 hours after last dose.

Sequence of KIT (P10721 26-976): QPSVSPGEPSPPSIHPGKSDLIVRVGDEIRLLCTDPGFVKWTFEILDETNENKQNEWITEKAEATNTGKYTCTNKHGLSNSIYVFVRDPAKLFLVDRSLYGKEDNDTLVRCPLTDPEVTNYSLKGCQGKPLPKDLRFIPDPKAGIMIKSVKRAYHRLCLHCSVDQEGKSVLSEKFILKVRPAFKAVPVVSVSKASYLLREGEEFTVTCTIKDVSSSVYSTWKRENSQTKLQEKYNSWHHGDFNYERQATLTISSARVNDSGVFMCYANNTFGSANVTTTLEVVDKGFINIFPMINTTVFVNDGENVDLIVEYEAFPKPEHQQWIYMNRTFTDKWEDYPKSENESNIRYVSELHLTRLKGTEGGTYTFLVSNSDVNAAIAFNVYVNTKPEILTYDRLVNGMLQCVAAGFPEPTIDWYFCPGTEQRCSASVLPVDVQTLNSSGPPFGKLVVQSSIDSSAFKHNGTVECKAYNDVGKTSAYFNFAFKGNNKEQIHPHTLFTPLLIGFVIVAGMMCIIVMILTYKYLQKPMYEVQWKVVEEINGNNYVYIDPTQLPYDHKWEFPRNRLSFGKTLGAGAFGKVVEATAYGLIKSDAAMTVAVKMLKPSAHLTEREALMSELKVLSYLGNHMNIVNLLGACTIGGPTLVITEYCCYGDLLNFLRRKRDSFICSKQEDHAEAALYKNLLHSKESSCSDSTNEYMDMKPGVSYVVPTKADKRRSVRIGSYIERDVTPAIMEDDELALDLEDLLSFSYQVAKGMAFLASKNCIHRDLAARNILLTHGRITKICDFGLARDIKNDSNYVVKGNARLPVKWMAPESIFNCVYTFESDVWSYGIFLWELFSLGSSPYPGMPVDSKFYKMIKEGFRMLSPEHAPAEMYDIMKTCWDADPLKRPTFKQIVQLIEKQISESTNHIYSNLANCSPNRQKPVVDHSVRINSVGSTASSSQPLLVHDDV

What is called inhibition is how much of the control response was suppressed. A low value points to a response near the control. By bioavailability is commonly meant dose-corrected exposure relative to a reference, in per cent. By IC50 is commonly meant the concentration that gives 50% inhibition. Low values mean inhibition by little substance, high ones a need for much substance. In general, MTD refers to the largest dose that counted as tolerated. Regarding `Cc1cc(NCCCN(C)C)nc(NC(=O)Nc2ccc(Cl)c(Cl)c2)n1` [CT-179], the inhibition at 1 µM in data set [1] was 80%; in data set [2], 66%. In addition, the Kp at 4 h in data set [3] (brain, 4 hours after single PO dose, 20 mg/kg, read-out: brain to plasma (B/P) ratio, average) came out at 6.72. For the same molecule, the Kp in data set [3] (brain, second study, PO doses of 1 and 5 mg/Kg once daily, read-out: estimated brain to plasma ratio) is over 10. Further, the bioavailability in data set [3] (20 mg/kg, read-out: bioavailability, mean) is 75%; in data set [3] (20 mg/kg, read-out: bioavailability, range estimated), 58 to 91%. Moreover, it took 0.965 µM to reach half-maximal inhibition in data set [4] (IC50). For the same molecule, in data set [5], the growth suppression entry is on record as “not suppressed”. The MTD in data set [6] (EOD) was 80 mg/kg; in data set [6] (every three days) it was 100 mg/kg. The “p-OLIG2 in tumors, western blot” value in data set [7] (setting [8]) is listed as “decreased p-OLIG2”. Moreover, the “p-RB in tumors, western blot” value in data set [7] (setting [8]) is on record as “reduced p-RB”. Moreover, in data set [7] (IP 80 mg/kg EOD, 80 mg/kg every three days, or 100 mg/kg every three days, from P10), the EFS versus control entry was “significantly improved EFS”. In data set [7] (administered every three days), the “BLI signal in G-Smo Gli-luc mice” value is listed as “dose-dependent decrease in BLI signal”.
